From patent US8758816B2, “Compositions comprising azelastine and methods of use thereof” (priority 2004, dated 2014)

Tested on: patients with seasonal allergic rhinitis (SAR)
Test: MP 428 two-week randomized double-blind study: Total Nasal Symptom Score (TNSS), change from baseline
Assay type: in vivo, human
Set-up: key to Change from Baseline in AM TNSS, Mean / Change from Baseline in AM TNSS, LS Mean / Change from Baseline in AM TNSS, Median: TNSS sum of 4 symptoms each 0-3 (0=none, 3=severe); change from baseline
Experimental: A two-week, randomized, double-blind study, which evaluated the effects of the co-administration of ASTELIN® (azelastine hydrochloride (HCl)) and FLONASE® (fluticasone propionate) compared to either product alone in patients with seasonal allergic rhinitis (SAR) was conducted during the 2006 Texas mountain cedar season. After a 5-day placebo lead-in period, 151 patients with moderate-to-severe allergic rhinitis symptoms were randomized to either: (1) (49 total patients) ASTELIN® (azelastine hydrochloride (HCl)) plus placebo saline nasal spray 2 sprays per nostril, 15 minutes apart, twice daily (AM & PM); (2) (50 total patients) FLONASE® (fluticasone propionate) plus placebo saline nasal spray, 2 sprays per nostril, 15 minutes apart, once daily (AM) and two sessions of placebo saline nasal spray, 2 sprays per nostril, 15 minutes apart (PM); or (3) (52 total patients) the co-administration of ASTELIN® (azelastine hydrochloride (HCl)) 2 sprays per nostril plus FLONASE® (fluticasone propionate) 2 sprays per nostril (AM), 15 minutes apart, and ASTELIN® (azelastine hydrochloride (HCl)) 2 sprays per nostril plus placebo saline nasal spray, 15 minutes apart, (PM) for a 2-week double-blind treatment period.
The primary efficacy variable was the change from baseline in the Total Nasal Symptom Score (TNSS), which comprised sneezing, itchy nose, runny nose, and nasal congestion (individual symptoms scores were assigned a value between 0 and 3, where 0=no symptoms and 3=severe symptoms). This study was not statistically designed to assess the differences between ASTELIN® and FLONASE®.

[1] = Day 5, Intent-to-Treat Population
[2] = Day 6, Intent-to-Treat Population
[3] = Day 7, Intent-to-Treat Population
[4] = Day 8, Intent-to-Treat Population
[5] = Day 9, Intent-to-Treat Population

Compound: CCC(=O)O[C@]1(C(=O)SCF)[C@H](C)C[C@H]2[C@@H]3C[C@H](F)C4=CC(=O)C=C[C@]4(C)[C@@]3(F)[C@@H](O)C[C@@]21C [Fluticasone, fluticasone propionate]
- Percent Change from Baseline in AM and PM Combined TNSS, Mean [1]: −26.89%
- Percent Change from Baseline in AM and PM Combined TNSS, Median [1]: −22.77%
- Percent Change from Baseline in PM TNSS, LS Mean [1]: −27.51%
- Percent Change from Baseline in PM TNSS, Mean [1]: −27.06%
- Percent Change from Baseline in PM TNSS, Median [1]: −22.22%
- Change from Baseline in AM and PM Combined TNSS, LS Mean (Day 5, Intent-to-Treat Population, ANCOVA model): −5.20
- Change from Baseline in AM and PM Combined TNSS, LS Mean (Day 5, Per-Protocol Population): −5.23
- Change from Baseline in AM and PM Combined TNSS, Mean (Day 5, Per-Protocol Population): −5.23
- Change from Baseline in AM and PM Combined TNSS, Median (Day 5, Per-Protocol Population): −4.40
- Percent Change from Baseline in AM and PM Combined TNSS, LS Mean (Day 5, Per-Protocol Population): −27.42%
- Percent Change from Baseline in AM and PM Combined TNSS, Mean (Day 5, Per-Protocol Population): −27.16%
- Percent Change from Baseline in AM and PM Combined TNSS, Median (Day 5, Per-Protocol Population): −22.77%
- Change from Baseline in AM TNSS, LS Mean [2]: −2.59
- Change from Baseline in AM TNSS, Mean [2]: −2.57
- Change from Baseline in AM TNSS, Median [2]: −2.20
- Change from Baseline in AM and PM Combined TNSS, Mean [2]: −5.10
- Change from Baseline in AM and PM Combined TNSS, Median [2]: −4.45
- Change from Baseline in PM TNSS, LS Mean [2]: −2.53
- Change from Baseline in PM TNSS, Mean [2]: −2.53
- Change from Baseline in PM TNSS, Median [2]: −2.00
- Percent Change from Baseline in AM TNSS, LS Mean [2]: −27.42%
- Percent Change from Baseline in AM TNSS, Mean [2]: −27.12%
- Percent Change from Baseline in AM TNSS, Median [2]: −23.81%
- Percent Change from Baseline in AM and PM Combined TNSS, LS Mean [2]: −27.15%
- Percent Change from Baseline in AM and PM Combined TNSS, Mean [2]: −26.90%
- Percent Change from Baseline in AM and PM Combined TNSS, Median [2]: −22.20%
- Percent Change from Baseline in PM TNSS, LS Mean [2]: −26.81%
- Percent Change from Baseline in PM TNSS, Mean [2]: −26.62%
- Percent Change from Baseline in PM TNSS, Median [2]: −22.22%
- Change from Baseline in AM and PM Combined TNSS, LS Mean (Day 6, Intent-to-Treat Population, ANCOVA model): −5.12
- Change from Baseline in AM and PM Combined TNSS, LS Mean (Day 6, Per-Protocol Population): −5.11
- Change from Baseline in AM and PM Combined TNSS, Mean (Day 6, Per-Protocol Population): −5.12
- Change from Baseline in AM and PM Combined TNSS, Median (Day 6, Per-Protocol Population): −4.45
- Percent Change from Baseline in AM and PM Combined TNSS, LS Mean (Day 6, Per-Protocol Population): −27.15%
- Percent Change from Baseline in AM and PM Combined TNSS, Mean (Day 6, Per-Protocol Population): −26.95%
- Percent Change from Baseline in AM and PM Combined TNSS, Median (Day 6, Per-Protocol Population): −22.20%
- Change from Baseline in AM TNSS, LS Mean [3]: −2.55
- Change from Baseline in AM TNSS, Mean [3]: −2.57
- Change from Baseline in AM TNSS, Median [3]: −2.00
- Change from Baseline in AM and PM Combined TNSS, Mean [3]: −5.02
- Change from Baseline in AM and PM Combined TNSS, Median [3]: −5.00
- Change from Baseline in PM TNSS, LS Mean [3]: −2.50
- Change from Baseline in PM TNSS, Mean [3]: −2.45
- Change from Baseline in PM TNSS, Median [3]: −2.00
- Percent Change from Baseline in AM TNSS, LS Mean [3]: −26.16%
- Percent Change from Baseline in AM TNSS, Mean [3]: −26.29%
- Percent Change from Baseline in AM TNSS, Median [3]: −22.22%
- Percent Change from Baseline in AM and PM Combined TNSS, LS Mean [3]: −26.00%
- Percent Change from Baseline in AM and PM Combined TNSS, Mean [3]: −25.75%
- Percent Change from Baseline in AM and PM Combined TNSS, Median [3]: −23.81%
- Percent Change from Baseline in PM TNSS, LS Mean [3]: −25.72%
- Percent Change from Baseline in PM TNSS, Mean [3]: −25.18%
- Percent Change from Baseline in PM TNSS, Median [3]: −20.45%
- Change from Baseline in AM and PM Combined TNSS, LS Mean (Day 7, Intent-to-Treat Population, ANCOVA model): −5.06
- Change from Baseline in AM and PM Combined TNSS, LS Mean (Day 7, Per-Protocol Population): −4.98
- Change from Baseline in AM and PM Combined TNSS, Mean (Day 7, Per-Protocol Population): −4.99
- Change from Baseline in AM and PM Combined TNSS, Median (Day 7, Per-Protocol Population): −5.00
- Percent Change from Baseline in AM and PM Combined TNSS, LS Mean (Day 7, Per-Protocol Population): −25.63%
- Percent Change from Baseline in AM and PM Combined TNSS, Mean (Day 7, Per-Protocol Population): −25.57%
- Percent Change from Baseline in AM and PM Combined TNSS, Median (Day 7, Per-Protocol Population): −23.81%
- Change from Baseline in AM TNSS, LS Mean [4]: −2.40
- Change from Baseline in AM TNSS, Mean [4]: −2.36
- Change from Baseline in AM TNSS, Median [4]: −1.67
- Change from Baseline in AM and PM Combined TNSS, Mean [4]: −4.55
- Change from Baseline in AM and PM Combined TNSS, Median [4]: −3.70
- Change from Baseline in PM TNSS, LS Mean [4]: −2.24
- Change from Baseline in PM TNSS, Mean [4]: −2.18
- Change from Baseline in PM TNSS, Median [4]: −2.00
- Percent Change from Baseline in AM TNSS, LS Mean [4]: −25.01%
- Percent Change from Baseline in AM TNSS, Mean [4]: −24.67%
- Percent Change from Baseline in AM TNSS, Median [4]: −19.23%
- Percent Change from Baseline in AM and PM Combined TNSS, LS Mean [4]: −23.87%
- Percent Change from Baseline in AM and PM Combined TNSS, Mean [4]: −23.38%
- Percent Change from Baseline in AM and PM Combined TNSS, Median [4]: −20.97%
- Percent Change from Baseline in PM TNSS, LS Mean [4]: −22.44%
- Percent Change from Baseline in PM TNSS, Mean [4]: −21.91%
- Percent Change from Baseline in PM TNSS, Median [4]: −21.95%
- Change from Baseline in AM and PM Combined TNSS, LS Mean (Day 8, Intent-to-Treat Population, ANCOVA model): −4.64
- Change from Baseline in AM and PM Combined TNSS, LS Mean (Day 8, Per-Protocol Population): −4.61
- Change from Baseline in AM and PM Combined TNSS, Mean (Day 8, Per-Protocol Population): −4.59
- Change from Baseline in AM and PM Combined TNSS, Median (Day 8, Per-Protocol Population): −3.70
- Percent Change from Baseline in AM and PM Combined TNSS, LS Mean (Day 8, Per-Protocol Population): −23.68%
- Percent Change from Baseline in AM and PM Combined TNSS, Mean (Day 8, Per-Protocol Population): −23.43%
- Percent Change from Baseline in AM and PM Combined TNSS, Median (Day 8, Per-Protocol Population): −20.97%
- Change from Baseline in AM TNSS, LS Mean [5]: −2.43
- Change from Baseline in AM TNSS, Mean [5]: −2.38
